Patent publication US20070099871A1, “Bioreductively-activated prodrugs” (ANGIOGENE PHARMACEUTICALS LIMITED, priority 2003, published 2007)
Like-named read-outs stand apart in the source and are kept apart here.

How the values were obtained:
[1] = Metabolism in liver homogenates; format: in vitro ADME; conditions: in air, mouse liver homogenate, NADPH, pH 7.4, 37° C.
Description: Metabolic stability of the compounds and unfavorable release of the drug by oxic liver can be assessed by using, for example, this assay. Freshly-excised mouse liver (approximately 1 g) was homogenised in 15 ml of ice-cold 50 mmol d-3 potassium phosphate buffer at pH 7.4. The homogenates were centrifuged at 1000 RPM for 10 min and the supernatants stored on ice. The metabolism of […] prodrug in air was performed with 0.5 ml liver homogenate (∫4 mg of protein by Bradford assay) with 100 μmol dm^−3 NADPH in 50 mmol dm^−3 potassium phosphate buffer at pH 7.4 incubated at 37° C. Samples (60 μl) were taken at regular intervals and added to an equivalent volume of acetonitrile, then mixed and centrifuged at 14, 300 RPM for 2 min prior to product analysis by HPLC. In this test the compound of Example 1 produced combretastatin A4 at a rate of only 3 pmol·min^−1·mg protein^−1. In contrast the corresponding compound 1-(4-methoxy-3-(5-nitrothiene-2-yl)methoxy)phenyl-2-(3,4,5-trimethoxy)phenyl-Z-ethene, lacking the key features of the invention produced combretastatin at a greater rate of 20 pmol·min^−1·mg proteins^−1.

A549 cells = test: Cellular cytotoxicity (Celltiter 96 MTS assay); format: cell-based; conditions: A549, 6 h exposure then 72 h incubation
Source text: The cytotoxic or cytostatic properties of compounds of formula (1) and compounds of formula DrXH can be assessed for example, by use, for example, of this assay. The Celltiter 96® Aqueous One Solution Cell Proliferation Assay kit (Promega Corporation, USA) which is a colorimetric method for determining the number of viable cells in proliferation or cytotoxicity assays was used. In this assay the MTS tetrazolium compound (Owen's Reagent) is bioreduced by viable cells into a coloured formazan product which is soluble in tissue culture medium and can be measured by recording absorbance at 490 nm with a 96 well plate reader. A549 cells were seeded in Eagles Minimum Essential Medium supplemented with 10% foetal calf serum and non-essential amino acids at […] on a 96 well plate and allowed to attach for 24 h. Compounds were dissolved in DMSO and diluted with cell culture medium before addition. The cells were exposed to test compound (0 to 2 μmol dm^−3) for 6 h then incubated for a further 72 h. The MTS reagent was added to each well, left for 4 h, then the absorbance measured at 490 nm with a 96 well plate reader. In this assay the compound of Example 1 had no activity at concentrations up to […] whereas combretastatin A4 reduced cell numbers to 50% of control at a concentration of around 250 nM.

[2] = target: T1, Supersomal p450 reductase (Homo sapiens, UniProt P16435); test: Drug release by cytochrome p450 reductase; format: biochemical; conditions: NADPH, pH 7.4, 37° C.
T1 construct: purchased Gentest P244
T1 sequence (P16435 1-677): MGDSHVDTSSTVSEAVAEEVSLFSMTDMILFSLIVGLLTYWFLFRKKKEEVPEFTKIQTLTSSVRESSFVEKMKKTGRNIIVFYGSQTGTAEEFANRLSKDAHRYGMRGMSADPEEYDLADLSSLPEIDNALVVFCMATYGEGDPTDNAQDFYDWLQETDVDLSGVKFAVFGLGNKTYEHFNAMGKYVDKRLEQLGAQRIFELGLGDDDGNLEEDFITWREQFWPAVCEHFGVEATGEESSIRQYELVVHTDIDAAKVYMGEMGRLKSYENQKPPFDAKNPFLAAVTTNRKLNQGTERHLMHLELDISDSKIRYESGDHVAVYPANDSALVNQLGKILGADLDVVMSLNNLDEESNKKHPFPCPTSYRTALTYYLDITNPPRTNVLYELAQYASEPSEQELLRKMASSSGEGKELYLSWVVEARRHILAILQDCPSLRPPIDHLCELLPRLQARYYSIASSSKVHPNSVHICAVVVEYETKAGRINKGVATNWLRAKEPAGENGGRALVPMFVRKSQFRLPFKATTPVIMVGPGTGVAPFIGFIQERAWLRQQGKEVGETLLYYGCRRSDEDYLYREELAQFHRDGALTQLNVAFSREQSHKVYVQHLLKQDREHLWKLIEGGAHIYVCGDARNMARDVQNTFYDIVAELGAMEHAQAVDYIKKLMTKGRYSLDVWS
Description: Cytochrome p450 reductase is widely expressed in human tumours as well as in a range of normal tissues and is one of a number of enzymes that can catalyse bioreduction. […] Compounds were dissolved in DMSO to a concentration of 625 μM and 20 μL added to a mixture of 50 mmol dm^−3 potassium phosphate buffer at pH 7.4 (2.4 mL), NADPH (20 μL of a 10 mM solution) and 60 μL of Supersomal™ p450 reductase (Gentest; Catalogue number P244) and incubated at 37° C. For experiments under nitrogen the mixture was degassed with nitrogen for 20 minutes prior to compound addition and overgassed with nitrogen during the incubation. Samples (100 μl) were taken at regular intervals and added to an equivalent volume of acetonitrile, then mixed and centrifuged at 14, 300 RPM for 2 min prior to product analysis by HPLC. In this test the compound of Example 1 produced combretastatin A4 at a rate of […]·min^−1·mg protein^−1 under nitrogen but only 110 pmol·min^−1·mg protein^−1 under air.

COc1ccc(/C=C\c2cc(OC)c(OC)c(OC)c2)cc1OCc1ccc([N+](=O)[O-])s1 [1-(4-methoxy-3-(5-nitrothiene-2-yl)methoxy)phenyl-2-(3,4,5-trimethoxy)phenyl-Z-ethene]
Rate of combretastatin A4 production [1]: 20 pmol·min^−1·mg protein^−1

COc1ccc(/C=C\c2cc(OC)c(OC)c(OC)c2)cc1OC(C)(C)c1ccc([N+](=O)[O-])s1 [Example 1]
IC50 (A549 cells; Homo sapiens, read-out: No activity at concentrations up to): > 2000 nM
Rate of combretastatin A4 production ([2]; under air): 110 pmol·min^−1·mg protein^−1
Rate of combretastatin A4 production ([2]; under nitrogen): 710 ppmol·min^−1·mg protein^−1

CC(C)(Sc1ncnc2[nH]cnc12)c1ccc([N+](=O)[O-])cc1 [Example 4, 6-(2-(4-nitrophenyl)propan-2-ylsulfanyl)-9H-purine]
melting point: 206 to 208 °C

COc1ccc(/C=C\c2cc(OC)c(OC)c(OC)c2)cc1O [combretastatin A4, reference compound]
IC50 (A549 cells; read-out: Concentration reducing cell numbers to 50% of control): ~250 nM
